Laboratory results: publication PMC12846677 (Viruses, 2025)
Several values for one entry are separate records, joined by “and”; a condition that tells them apart may be missing. Identical values can stand only once. Like-named read-outs stand apart in the source and are kept apart here.

Assays:
[1] = test system: HIV-1IIIB; experiment: Combined antiviral activity assay (p24 ELISA, CompuSyn); type: cell-based
[2] = test system: NL4-3; experiment: microbe, parasite or virus in culture; type: cell-based; conditions: Human immunodeficiency virus 1, NL43; NL4-3, p24
[3] = test system: NL4-3IN-R263K; experiment: microbe, parasite or virus in culture; type: cell-based; conditions: Human immunodeficiency virus 1; read-out: EC50
[4] = test system: HIV-1DRACC017; experiment: microbe, parasite or virus in culture; type: cell-based; conditions: for EC50: Human immunodeficiency virus 1, HIV-1DRACC017, p24
[5] = test system: HIV-1IIIB; experiment: microbe, parasite or virus in culture; conditions: Human immunodeficiency virus 1, C8166, HIV-1IIIB
[6] = test system: HIV-1_4755-5; conditions: HIV-1_4755-5, C8166, p24
[7] = test system: HIV-1TC-1 (CRF01_AE); conditions: HIV-1TC-1, PBMC, p24
[8] = test system: HIV-1KIZ011 (CRF07_BC); experiment: microbe, parasite or virus in culture; conditions: Human immunodeficiency virus 1, PBMC
[9] = parameters: method as in CTR20240167; conditions: healthy adults, single-dose administration; ref CTR20240167; cited from earlier work
[10] = molecular target: HIV-1 mutant N155H integrase (Human immunodeficiency virus type 1 group M subtype B, UniProt P04585, N1302H); experiment: biochemical; conditions: HIV-1N155H integrase, mean n = 4
[11] = test system: HIV-1KIZ011 (CRF07_BC); conditions: HIV-1KIZ011, PBMC, p24
[12] = test system: HIV-1IIIB
[13] = test system: HIV-1WAN (CRF01_AE); conditions: PBMC, p24
[14] = Cytotoxicity MTT assay in MT4 cells; type: cell-based; conditions: human
[15] = test system: HIV-1WAN (CRF01_AE); experiment: microbe, parasite or virus in culture; conditions: Human immunodeficiency virus 1, PBMC
[16] = test system: HIV-1_4755-5; experiment: microbe, parasite or virus in culture; conditions: Human immunodeficiency virus 1, C8166
[17] = test system: pNL4-3gp41(36G) V38A, N42T; conditions: C8166, p24
[18] = Cytotoxicity MTT assay in PBMCs; type: cell-based; conditions: human, peripheral blood mononuclear cells (PBMCs), PBMC
[19] = test system: HIV-1A17; experiment: microbe, parasite or virus in culture; conditions: Human immunodeficiency virus 1, C8166
[20] = Cytotoxicity MTT assay in C8166 cells; type: cell-based; conditions: human
[21] = test system: HIV-1TC-1 (CRF01_AE); experiment: microbe, parasite or virus in culture; conditions: Human immunodeficiency virus 1, PBMC
[22] = test system: drug-resistant strains; experiment: microbe, parasite or virus in culture; type: cell-based; conditions: Human immunodeficiency virus 1; panel of drug-resistant strains; read-out: EC50 range
[23] = test system: HIV-1IIIB; experiment: HIV-1IIIB-induced cytopathic effect (syncytia counting) in C8166 cells
[24] = test system: HIV-1IIIB; experiment: microbe, parasite or virus in culture; type: cell-based; conditions: Human immunodeficiency virus 1, MT4, MTT
[25] = test system: HIV-1IIIB; experiment: qPCR determination of Late-RT, 2-LTR and Alu-LTR in infected C8166 cells; type: cell-based
[26] = test system: HIV-1A17; conditions: HIV-1A17, C8166, p24
[27] = test system: clinical isolated strains; experiment: microbe, parasite or virus in culture; type: cell-based; conditions: Human immunodeficiency virus 1, read-out: EC50 range
[28] = p24 (Table 4, resistance study)

Nc1ccn([C@@H]2CS[C@H](CO)O2)c(=O)n1 [3TC, Lamivudine]
DRI Value ED75 ([1]; combination ACC017 + 3TC): 6.21 | DRI Value ED90 ([1]; combination ACC017 + 3TC): 7.90 | DRI Value ED95 ([1]; combination ACC017 + 3TC): 9.30 | DRI Value ED75 ([1]; combination DTG + 3TC): 5.03 | DRI Value ED90 ([1]; combination DTG + 3TC): 6.79 | DRI Value ED95 ([1]; combination DTG + 3TC): 8.33 | EC50 [2]: 198 ± 101 nM | EC50 [3]: 180 ± 38.5 nM | EC50 [4]: 322 ± 34.6 nM | FC (Fold Change) EC50 (HIV-1DRACC017)/EC50 (HIV-1IIIB) ([4]; p24): 1.78 | EC50 [5, 28]: 181 ± 41.5 nM

CCn1c(C(=O)c2cc(C)cc(C#N)c2)c(C(C)C)c(=O)[nH]c1=O [ACC007, Ainuovirine]
DRI Value ED75 ([1]; combination ACC017 + ACC007): 3.77 | DRI Value ED90 ([1]; combination ACC017 + ACC007): 6.12 | DRI Value ED95 ([1]; combination ACC017 + ACC007): 8.66 | DRI Value ED75 ([1]; combination DTG + ACC007): 4.66 | DRI Value ED90 ([1]; combination DTG + ACC007): 7.34 | DRI Value ED95 ([1]; combination DTG + ACC007): 10.16

C[C@H]1N2C(=O)c3c(O)c(=O)c(C(=O)NCc4ccc(F)cc4F)cn3C[C@@H]2OCC12CC2 [ACC017]
SI (CC50/EC50) [6]: 2233.55 | SI (CC50/EC50) [7]: 138,545.45 | DRI Value ED75 ([1]; combination ACC017 + 3TC): 5.25 | DRI Value ED90 ([1]; combination ACC017 + 3TC): 9.07 | DRI Value ED95 ([1]; combination ACC017 + 3TC): 13.15 | DRI Value ED75 ([1]; combination ACC017 + ACC007): 4.07 | DRI Value ED90 ([1]; combination ACC017 + ACC007): 6.48 | DRI Value ED95 ([1]; combination ACC017 + ACC007): 8.97 | DRI Value ED75 ([1]; combination ACC017 + ACC017): 1.77 and 3.46 | DRI Value ED90 ([1]; combination ACC017 + ACC017): 2.06 and 2.77 | DRI Value ED95 ([1]; combination ACC017 + ACC017): 2.32 and 2.42 | DRI Value ED75 ([1]; combination ACC017 + DTG): 2.89 | DRI Value ED90 ([1]; combination ACC017 + DTG): 2.45 | DRI Value ED95 ([1]; combination ACC017 + DTG): 2.27 | DRI Value ED75 ([1]; combination ACC017 + FTC + TAF): 4.62 | DRI Value ED90 ([1]; combination ACC017 + FTC + TAF): 6.79 | DRI Value ED95 ([1]; combination ACC017 + FTC + TAF): 9.05 | EC50 [8]: 0.33 ± 0.06 nM | Safety and tolerability [9]: favorable safety and tolerability profile | IC50 [10]: 9.91 nM | SI (CC50/EC50) [11]: 46,181.82 | SI (CC50/EC50) ([12]; C8166, p24): 34,525.42 | Fold increase of EC50 in the presence of 20% human serum ([12]; C8166, p24, with vs without 20% human serum): 14.03 fold | EC50 [2]: 1.7 ± 0.47 nM | SI (CC50/EC50) [13]: 8561.80 | CC50 at 3 d [14]: 24800 ± 80 nM | EC50 [3]: 28.1 ± 4.22 nM | EC50 [15]: 1.78 ± 0.29 nM | EC50 [16]: 9.12 ± 2.31 nM | EC50 [4]: > 5000 nM | EC50 [17]: 0.34 ± 0.09 nM | SI (CC50/EC50) [17]: 59,911.76 | CC50 at 7 d [18]: 15200 nM | EC50 [19]: 8.51 ± 0.25 nM | CC50 at 3 d [20]: 20370 ± 100 nM | EC50 [21]: 0.11 ± 0.06 nM | EC50 ([5]; C8166, p24 (Table 1)): 0.59 ± 0.09 nM | EC50 ([5]; C8166, p24, 20% human serum): 8.28 ± 2.02 nM | EC50 [5, 28]: 1.25 ± 0.48 nM | EC50 [22]: 0.34 to 9.12 nM | SI (CC50/EC50) ([23]; HIV-1IIIB, C8166, syncytia): 34,525.42 | EC50 ([23]; Human immunodeficiency virus 1, C8166): 0.59 ± 0.09 nM | EC50 [24]: 0.05147 ± 2e-05 nM | Late-RT level versus positive control (PC) group ([25]; C8166, HIV-1IIIB MOI 0.5, 100 nM ACC017, 4-8 h): no significant difference compared with the PC group | 2-LTR level (nuclear entry) ([25]; C8166, HIV-1IIIB MOI 0.5, 100 nM ACC017, 8, 12, 24 h): unable to block the nuclear entry process | Alu-LTR level (integrated provirus) ([25]; C8166, HIV-1IIIB MOI 0.5, 100 nM ACC017, 24 h, nested PCR): significantly reduced | SI (CC50/EC50) [26]: 2393.65 | EC50 [27]: 0.11 to 1.78 nM
